Results on 1 compound are retold here after EP4775580A1, “COMPOUND, PHARMACEUTICAL COMPOSITION COMPRISING SAME, AND USE THEREOF” (Euregen Biopharma Co., Ltd., priority 2023, dated 2025).

The test system of one series is Molm-13 cells. As to the kind of experiment: Antiproliferative activity, CellTiter-Glo, 7 days (Test Example 2), Molm-13. In kind it is cell-based. The settings on record: Homo sapiens, 168 h, 7 days incubation, read-out: MOLM13 IC50. The text has this: (§1) [0134] 1. Experimental Principle: MV-4-11, Molm-13, and OCI-AML-3 cells are human hematologic tumor cell lines harboring the Menin-MLL fusion. HL-60 is a wild-type human hematologic tumor cell line without Menin-MLL fusion. […] 2. Experimental Materials: MV-4-11, Molm-13, OCI-AML-3, and HL-60 cells were all purchased from Cobioer; CellTiter-Glo® was purchased from Promega (Cat. #G7571); RPMI-1640 was purchased from Viva Cell (Cat. #C3010-0500); IMDM was purchased from Viva Cell (Cat. #C3040-0500); fetal bovine serum (FBS) was purchased from Biosera (Cat. #FB-1058/500); penicillin-streptomycin was purchased from BasalMedia (Cat. #S110JV); 0.25% Trypsin-EDTA was purchased from BasalMedia (Cat. #S310KJ); dimethyl sulfoxide (DMSO) was purchased from Sinopharm (Cat. #30072418); 96-well plates were purchased from Corning (Cat. #3610); incubator was obtained from PHCbi (Model: MCO-18AC); inverted microscope was obtained from Mingmei (Cat. #MI52-0); automated cell counter was obtained from BodBoge (Model: JSY-SC-031N); microplate reader was obtained from PerkinElmer (Model: Envision); data processing software: GraphPad Prism 8.0. 3. […] After incubation at room temperature for 10 minutes, luminescence values were read using the EnVision microplate reader, and IC50 values were calculated using GraphPad Prism 8.0 software. […]
In general terms: In ATP-based viability assays light output follows the ATP content of the culture.

The subject of a further series is OCI-AML-3 cells. As to the kind of experiment: Antiproliferative activity, CellTiter-Glo, 7 days (Test Example 2), OCI-AML-3. The format is cell-based. The note with it: Homo sapiens, 168 h, 7 days incubation, read-out: OCI-AML3 IC50.
Source text: as §1

Series [1] has as its system MV-4-11 subcutaneous tumor xenograft. As to the kind of experiment: In vivo efficacy in subcutaneous MV-4-11 tumor xenograft model. Also on record: species or system female NOD/SCID mice. The note with it: oral gavage once daily, tumor volume, Figure 1. From the text: • 1. Objective: To evaluate the in vivo efficacy of test compounds in a subcutaneous MV-4-11 tumor xenograft model in female NOD/SCID mice. • 2. Experimental Materials: The test compound was Compound 3 prepared according to the examples of the present invention; the positive control compound SNDX-5613 was purchased from Chengdu Zhihui Zhongxin Biomedical Co., Ltd.; MV-4-11 cells were purchased from Nanjing Cobioer; NOD/SCID mice were purchased from Beijing Vital River Laboratory Animal Technology Co., Ltd. • 3. Experimental Methods: Female NOD/SCID mice, 6-8 weeks of age, weighing 16-22 g, were used. MV-4-11 cells were cultured in IMDM medium supplemented with 20% fetal bovine serum. Cells in exponential growth phase were harvested, resuspended in phosphate-buffered saline, and prepared as a cell suspension at a density of 1 × 10^7 cells/0.1 mL. Cells were subcutaneously inoculated into the right dorsal neck region of each mouse (1 × 10^7 cells/mouse) with 50% Matrigel. When the mean tumor volume reached approximately 50-100 mm^3, mice were randomized and treatment was initiated by oral gavage administration once daily. Tumor diameters were measured twice weekly using digital calipers. Tumor volume was calculated using the formula: V = 0.5 × a × b^2, where a and b represent the longest and shortest tumor diameters, respectively.

Series [2] is described as follows: Pharmacokinetics in rats after single IV and PO administration (LC-MS/MS). The settings on record: SD rats. The format is in vivo, male SD rats. As for the experimental part: • 1. Objective: This study aimed to characterize the pharmacokinetic properties of selected compounds from the examples of the present invention in SD rats following single intravenous (IV) injection and oral (PO) administration using LC-MS/MS methodology. • 2. Experimental Materials: Test compounds were prepared according to the examples of the present invention; male SD rats were obtained from the Laboratory Animal Department of Shanghai Institute of Planned Parenthood Research (License No. SCXK(Shanghai)2018-0006) or Shanghai Jihui Laboratory Animal Breeding Co., Ltd. (License No. SCXK(Shanghai)2022-0009). • 3. Experimental Methods: Preparation of 0.5% methylcellulose: 5 g of methylcellulose was weighed and dissolved in 1000 mL of purified water. Preparation of 0.5% methylcellulose (pH = 5.03): 5 g of methylcellulose was weighed and dissolved in 1000 mL of purified water, and the pH was adjusted to 5.03 with 100 mM citric acid.
Preparation of oral formulations: The required amount of test compound was weighed and dissolved in 0.5% methylcellulose solution or 0.5% methylcellulose (pH = 5.03) to obtain a suspension or solution at 1 or 3 mg/mL.
Preparation of intravenous injection formulations: The required amount of test compound (EB229, EB300, EB341, EB342) was weighed and dissolved in 0.5 mL dimethyl sulfoxide to prepare a 4 mg/mL solution. To 0.25 mL of this solution, 0.5 mL of polyethylene glycol 15-hydroxystearate (Solutol) and 4.25 mL of normal saline were added to obtain a 0.2 mg/mL solution. For EB834, 6 mg was weighed and dissolved in 0.1 mL dimethyl sulfoxide, followed by addition of 0.2 mL polyethylene glycol 15-hydroxystearate (Solutol) and 1.7 mL normal saline to obtain a 3 mg/mL solution.
Dosing: Male SD rats were fasted overnight prior to oral (PO) administration; fasting was not required for the single intravenous (IV) injection group. Food was provided 4 hours post-dosing.
Sample Collection: Blood was collected from the jugular vein or other suitable veins, with 0.2 mL collected at each time point. Samples were placed in tubes containing dipotassium ethylenediaminetetraacetate and kept on ice prior to centrifugation. Within 1 hour of blood collection, samples were centrifuged at 6800 × g for 6 minutes at 2-8°C and stored at -80°C.

Read-outs that look alike come from different tables or passages of the source.

One may read the IC50 as the point on the concentration scale where inhibition reaches its midpoint. The term AUC(0-t) denotes exposure summed from dosing to a finite time, without extrapolation to infinity. What is called Cmax is the maximum level reached in the sampled fluid or tissue. As for `CCN(C(=O)c1cc(F)ccc1N1CCN([C@@H]2CCN([C@H](CCCN(C)CCOC)C(C)C)C2)c2ncncc21)C(C)C` [Example 3], the values for the concentration for half-maximal inhibition (IC50) in the series with Molm-13 cells and in the series on OCI-AML-3 cells were 26.7 nM and 103 nM, respectively. The “efficacy in MV-4-11 subcutaneous tumor xenograft model” value in series [1] is reported as “superior efficacy compared to the positive control SNDX-5613”. Besides, the “PO F” value in series [2] (PO 30 mg/kg vs IV 3 mg/kg) is reported as 172%. Further, the AUC(0-t) in series [2] (rat, in vivo, IV 3 mg/kg, read-out: IV AUC(0-t)) stood at 494 ng·h/mL; in series [2] (rat, in vivo, PO 30 mg/kg, 0.5% MC (pH 5.03), read-out: PO AUC(0-t)), 8500 ng·h/mL. In series [2] (rat, in vivo, IV 3 mg/kg, read-out: IV CL), the clearance came out at 59.2 mL/min/kg. For the same compound, the highest concentration (Cmax) in series [2] (rat, in vivo, IV 3 mg/kg, read-out: IV Cmax) worked out at 193 ng/mL; in series [2] (rat, in vivo, PO 30 mg/kg, 0.5% MC (pH 5.03), read-out: PO Cmax) it was 1140 ng/mL. Besides, the Vd in series [2] (rat, in vivo, IV 3 mg/kg, read-out: IV Vss) was determined as 203 L/kg. Moreover, the half-life in series [2] (rat, in vivo, IV 3 mg/kg, read-out: IV t1/2 (converted)) was 52.9 h; in series [2] (rat, in vivo, PO 30 mg/kg, 0.5% MC (pH 5.03), read-out: PO t1/2 (converted)), 21.3 h.
